Tests used:
B. subtilis 168 [1] = experiment: fitness (endpoint OD595 vs no drug) (fraction); higher = more growth
Summary of the method: (§1)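 With the first reading as background, OD595 was measured every 30 min for 14 h in 384-well plates kept at 37 °C and inoculated at OD595 0.01. TSB, LB Lennox or CY was the medium. Fitness is the optical density at the transition into stationary phase divided by the robust mean of no-drug control wells, with a cap of 1.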

S. pneumoniae D39V [2] = experiment: as above
Summary of the method: as §1

B. subtilis 168 [3] = experiment: Bliss interaction score (quartile over a dose matrix) (fitness difference); higher = more antagonism (negative = synergy)
Summary of the method: (§2)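 Quartiles of the Bliss score were taken over technical, biological and donor/recipient replicates. That score is observed fitness minus the product of the single-drug fitness values, which were inferred from combination data. Fitness itself is OD595 at entry into stationary phase divided by the plate's robust no-drug mean, with a cap at 1.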

S. aureus DSM 20231 [4] = experiment: as above
Summary of the method: as §2

S. aureus Newman = experiment: as above
Summary of the method: as §2

S. pneumoniae D39V [5] = experiment: as above
Summary of the method: as §2

S. aureus DSM 20231 [6] = experiment: fitness (endpoint OD595 vs no drug) (fraction); higher = more growth
Summary of the method: as §1
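Throughout, for Bliss interaction score (quartile over a dose matrix): first quartile when negative (synergy) and third quartile when positive (antagonism).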

CN(C)C(=O)C(CCN1CCC(O)(c2ccc(Cl)cc2)CC1)(c1ccccc1)c1ccccc1 [Loperamide] + Cc1ncc([N+](=O)[O-])n1CCO [Metronidazole]
Conditions	fitness
B. subtilis 168 [1], first compound 25 µg/mL, partner 0.625 µg/mL	0.918
B. subtilis 168 [1], first compound 25 µg/mL, partner 1.25 µg/mL	0.891
B. subtilis 168 [1], first compound 25 µg/mL, partner 2.5 µg/mL	0.895
B. subtilis 168 [1], first compound 100 µg/mL, partner 1.25 µg/mL	0.214
B. subtilis 168 [1], first compound 100 µg/mL, partner 2.5 µg/mL	0.203
S. pneumoniae D39V [2], first compound 17.14 µg/mL, partner 1.25 µg/mL	0.983
S. pneumoniae D39V [2], first compound 17.14 µg/mL, partner 2.5 µg/mL	≥ 1
S. pneumoniae D39V [2], first compound 17.14 µg/mL, partner 5 µg/mL	0.99
S. pneumoniae D39V [2], first compound 20 µg/mL, partner 1.073 µg/mL	≥ 1
S. pneumoniae D39V [2], first compound 20 µg/mL, partner 2.145 µg/mL	0.921
S. pneumoniae D39V [2], first compound 20 µg/mL, partner 4.29 µg/mL	0.973
S. pneumoniae D39V [2], first compound 34.28 µg/mL, partner 1.25 µg/mL	0.99
S. pneumoniae D39V [2], first compound 34.28 µg/mL, partner 2.5 µg/mL	≥ 1
S. pneumoniae D39V [2], first compound 34.28 µg/mL, partner 5 µg/mL	0.979
S. pneumoniae D39V [2], first compound 40 µg/mL, partner 1.073 µg/mL	≥ 1
S. pneumoniae D39V [2], first compound 40 µg/mL, partner 4.29 µg/mL	0.96
S. pneumoniae D39V [2], first compound 80 µg/mL, partner 1.073 µg/mL	0.938
S. pneumoniae D39V [2], first compound 80 µg/mL, partner 2.145 µg/mL	0.898
S. pneumoniae D39V [2], first compound 80 µg/mL, partner 4.29 µg/mL	0.95

S. pneumoniae D39V [2], first compound 68.57 µg/mL, one replicate
Conditions	fitness
partner 1.25 µg/mL	≥ 1
partner 2.5 µg/mL	0.944
partner 5 µg/mL	≥ 1

Conditions	Bliss interaction score
B. subtilis 168 [3]	0.268
S. aureus DSM 20231 [4]	0.0627
S. aureus Newman	0.064
S. pneumoniae D39V [5]	0.0877

CN(C)C(=O)C(CCN1CCC(O)(c2ccc(Cl)cc2)CC1)(c1ccccc1)c1ccccc1 [Loperamide] + CC1=C\[C@@H](O)CC(=O)Cc2nc(co2)C(=O)N2CCC=C2C(=O)O[C@H](C(C)C)[C@H](C)/C=C/C(=O)NC\C=C\1 [Virginiamycin M1]
Conditions	fitness
B. subtilis 168 [1], first compound 25 µg/mL, partner 0.0625 µg/mL	0.809
B. subtilis 168 [1], first compound 25 µg/mL, partner 0.125 µg/mL	0.745
B. subtilis 168 [1], first compound 25 µg/mL, partner 0.25 µg/mL	0.755
B. subtilis 168 [1], first compound 50 µg/mL, partner 0.0625 µg/mL	0.0261
B. subtilis 168 [1], first compound 50 µg/mL, partner 0.125 µg/mL	0.0336
B. subtilis 168 [1], first compound 50 µg/mL, partner 0.25 µg/mL	0.0356
B. subtilis 168 [1], first compound 100 µg/mL, partner 0.0625 µg/mL	0.0228
B. subtilis 168 [1], first compound 100 µg/mL, partner 0.125 µg/mL	0.0378
B. subtilis 168 [1], first compound 100 µg/mL, partner 0.25 µg/mL	0.0328
S. pneumoniae D39V [2], first compound 17.14 µg/mL, partner 0.5 µg/mL	≥ 1
S. pneumoniae D39V [2], first compound 17.14 µg/mL, partner 1 µg/mL	≥ 1
S. pneumoniae D39V [2], first compound 17.14 µg/mL, partner 2 µg/mL	≥ 1
S. pneumoniae D39V [2], first compound 20 µg/mL, partner 2 µg/mL	≥ 1
S. pneumoniae D39V [2], first compound 34.28 µg/mL, partner 0.5 µg/mL	≥ 1
S. pneumoniae D39V [2], first compound 34.28 µg/mL, partner 1 µg/mL	≥ 1
S. pneumoniae D39V [2], first compound 34.28 µg/mL, partner 2 µg/mL	≥ 1
S. pneumoniae D39V [2], first compound 40 µg/mL, partner 2 µg/mL	≥ 1

fitness, S. pneumoniae D39V [2], one replicate
Conditions	partner 0.15 µg/mL	partner 0.3 µg/mL	partner 0.5 µg/mL	partner 1 µg/mL	partner 2 µg/mL
first compound 20 µg/mL	≥ 1	0.999	≥ 1	≥ 1	–
first compound 40 µg/mL	≥ 1	≥ 1	≥ 1	≥ 1	–
first compound 68.57 µg/mL	–	–	≥ 1	≥ 1	≥ 1
first compound 80 µg/mL	≥ 1	≥ 1	0.348	0.0702	–

Conditions	Bliss interaction score
B. subtilis 168 [3]	-0.0999
S. aureus DSM 20231 [4]	-0.211
S. aureus Newman	0.0415
S. pneumoniae D39V [5]	0.0883

C[C@H]1COc2c(N3CCN(C)CC3)c(F)cc3c(=O)c(C(=O)O)cn1c23 [Levofloxacin] + CN(C)C(=O)C(CCN1CCC(O)(c2ccc(Cl)cc2)CC1)(c1ccccc1)c1ccccc1 [Loperamide]
fitness, one replicate
Conditions	first compound 0.001 µg/mL	first compound 0.002 µg/mL	first compound 0.0039 µg/mL	first compound 0.2 µg/mL	first compound 0.4 µg/mL	first compound 0.8 µg/mL
B. subtilis 168 [1], partner 25 µg/mL	0.807	0.714	0.714	–	–	–
B. subtilis 168 [1], partner 50 µg/mL	0.618	0.172	0.206	–	–	–
B. subtilis 168 [1], partner 100 µg/mL	0.613	0.51	0.581	–	–	–
S. pneumoniae D39V [2], partner 68.57 µg/mL	–	–	–	0.913	0.896	0.864

Conditions	fitness
B. subtilis 168 [1], first compound 0.0312 µg/mL, partner 25 µg/mL	0.0337
B. subtilis 168 [1], first compound 0.0312 µg/mL, partner 50 µg/mL	0.0298
B. subtilis 168 [1], first compound 0.0312 µg/mL, partner 100 µg/mL	0.0296
B. subtilis 168 [1], first compound 0.0625 µg/mL, partner 25 µg/mL	0.0122
B. subtilis 168 [1], first compound 0.0625 µg/mL, partner 50 µg/mL	0.0229
B. subtilis 168 [1], first compound 0.0625 µg/mL, partner 100 µg/mL	0.0349
B. subtilis 168 [1], first compound 0.125 µg/mL, partner 25 µg/mL	0.0335
B. subtilis 168 [1], first compound 0.125 µg/mL, partner 50 µg/mL	0.0386
B. subtilis 168 [1], first compound 0.125 µg/mL, partner 100 µg/mL	0.0401
S. pneumoniae D39V [2], first compound 0.1725 µg/mL, partner 20 µg/mL	≥ 1
S. pneumoniae D39V [2], first compound 0.1725 µg/mL, partner 40 µg/mL	≥ 1
S. pneumoniae D39V [2], first compound 0.2 µg/mL, partner 17.14 µg/mL	0.877
S. pneumoniae D39V [2], first compound 0.2 µg/mL, partner 34.28 µg/mL	0.9
S. pneumoniae D39V [2], first compound 0.345 µg/mL, partner 20 µg/mL	0.998
S. pneumoniae D39V [2], first compound 0.345 µg/mL, partner 40 µg/mL	≥ 1
S. pneumoniae D39V [2], first compound 0.4 µg/mL, partner 17.14 µg/mL	0.901
S. pneumoniae D39V [2], first compound 0.4 µg/mL, partner 34.28 µg/mL	0.883
S. pneumoniae D39V [2], first compound 0.69 µg/mL, partner 20 µg/mL	0.787
S. pneumoniae D39V [2], first compound 0.69 µg/mL, partner 40 µg/mL	0.837
S. pneumoniae D39V [2], first compound 0.8 µg/mL, partner 34.28 µg/mL	0.642

Conditions	Bliss interaction score
B. subtilis 168 [3]	0.155
S. aureus DSM 20231 [4]	0.0444
S. aureus Newman	0.0501
S. pneumoniae D39V [5]	0.189

CN(C)C(=O)C(CCN1CCC(O)(c2ccc(Cl)cc2)CC1)(c1ccccc1)c1ccccc1 [Loperamide] + COc1ccc(C[C@H](N)C(=O)N[C@H]2[C@@H](O)[C@H](n3cnc4c(N(C)C)ncnc43)O[C@@H]2CO)cc1 [Puromycin]
fitness
Conditions	partner 0.39 µg/mL	partner 0.78 µg/mL	partner 1 µg/mL	partner 1.56 µg/mL	partner 2 µg/mL	partner 4 µg/mL
B. subtilis 168 [1], first compound 25 µg/mL	0.82	0.767	–	0.718	–	–
B. subtilis 168 [1], first compound 50 µg/mL	0.0429	0.038	–	0.0393	–	–
B. subtilis 168 [1], first compound 100 µg/mL	0.0261	0.0107	–	0.0233	–	–
S. pneumoniae D39V [2], first compound 17.14 µg/mL	–	–	0.999	–	0.965	0.872
S. pneumoniae D39V [2], first compound 34.28 µg/mL	–	–	0.988	–	0.952	0.813

fitness, S. pneumoniae D39V [2], one replicate
Conditions	first compound 20 µg/mL	first compound 40 µg/mL	first compound 68.57 µg/mL	first compound 80 µg/mL
partner 1 µg/mL	0.951	0.899	0.997	0.159
partner 2 µg/mL	0.951	0.93	0.956	0.129
partner 4 µg/mL	0.835	0.828	0.908	0.0785

Conditions	Bliss interaction score
B. subtilis 168 [3]	-0.121
S. aureus DSM 20231 [4]	-0.192
S. aureus Newman	-0.0477
S. pneumoniae D39V [5]	0.0779

CO/N=C(\C(=O)N[C@@H]1C(=O)N2C(C(=O)[O-])=C(C[N+]3(C)CCCC3)CS[C@H]12)c1csc(N)n1 [Cefepime] + COc1cc(Cc2cnc(N)nc2N)cc(OC)c1OC [Trimethoprim]
fitness, S. aureus DSM 20231 [6]
Conditions	partner 0.125 µg/mL	partner 0.25 µg/mL	partner 0.5 µg/mL	partner 1 µg/mL
first compound 0.125 µg/mL	0.629	0.556	0.272	0.0708
first compound 0.25 µg/mL	0.631	0.573	–	0.0608
first compound 0.5 µg/mL	0.679	0.612	–	0.0509

Conditions	Bliss interaction score
B. subtilis 168 [3]	0.0732
S. aureus DSM 20231 [4]	0.0714
S. aureus Newman	0.0778
S. pneumoniae D39V [5]	0.255

From the supplement of paper PMC10627819
